{"source": "paper PMC10165357", "about": "“Brain p3‐Alcβ peptide restores neuronal viability impaired by Alzheimer's amyloid β‐peptide” (EMBO Molecular Medicine, 2023)", "key": {"[1]": {"test_system": "mitochondrial activity", "details": "ref Singh et al, 2017; cited from earlier work", "text": "Therefore, we would like to re‐emphasize that the function of p3‐Alcβ is to increase neuronal viability and to protect neurons against Aβ‐induced toxicity, and that the target of p3‐Alcβ may not directly be Aβ peptide and Aβ aggregates/plaques. This property of p3‐Alcβ as a druggable candidate for AD therapy is likely to be distinct from immunotherapies that use anti‐Aβ antibodies. Furthermore, the fu ..."}, "[2]": {"details": "Alcβ-KO mice, subcutaneous administration"}, "[3]": {"test_system": "Aβo-induced Ca2+ influx in mouse primary neurons", "assay": "Aβ42 oligomer-induced Ca2+ influx, Fluo 4-AM (Fig 3A, 3B, 4A, 4D, EV2A, EV2B)", "format": "cell-based", "details": "neurons div 14, Aβo 5.2 μM"}, "[4]": {"test_system": "Ca2+ influx in mouse primary neurons", "assay": "Ca2+ influx after CaCl2 administration in Ca2+-depleted medium, Fluo 4-AM (Fig 3C, 3D, 4C)", "format": "cell-based", "details": "neurons div 11–14, CaCl2 2 mM, D-AP5 5, 50 and 200 μM; AUC 5–14 min; n = 6", "method": "All animal studies were conducted in compliance with the ARRIVE guidelines. The mouse study was approved by the Animal Studies Committee of Hokkaido University (#18‐0168). WT C57BL/6J (CLEA, Japan, Inc), Alcβ‐KO (RBRC11514) (Gotoh et al, [2020]), App ^ NL‐F/NL‐F (RBRC06343), and App ^ NL‐G‐F/NL‐G‐F (RBRC06344) (Saito et al, [2014]) mice were housed in specific pathogen‐free (SPF) conditions with a microenvironment vent system (Allentown Inc., Allentown, NJ, USA) under a 12 h/12 h light/dark cycle with free access to food and water. Three to five male or female siblings were housed in each cage; cages were equipped with microbarrier tops. All experimental procedures with Cynomolgus monkeys were approved by the Animal Care and Use Committee of Shiga University of Medical Science and were carried out in accordance with approved guidelines (Nishimura et al, [2012]). Stored frozen pieces of the cerebral cortex of monkeys were used. Sprague–Dawley rats (8‐week‐old) were purchased from Japan SLC Inc. (Hamamatsu, Japan) and housed with their littermates. […] All animal protocols and related experiments were approved by the Ethics Committees of the Central Research Laboratory at Hamamatsu Photonics and Hamamatsu University School of Medicine. […]"}, "[5]": {"details": "WT mice, s.c. injection 5 mg/kg, n = 4 per time point", "text": "IgG was purified with antigen‐coupled resin and conjugated to biotin. Horseradish peroxidase‐conjugated streptavidin was purchased from Amersham/GE Healthcare (Cat #RPN1051, Little Chalfont, UK), and the tetramethyl benzidine (TMB) microwell peroxidase substrate system was obtained from SeraCare Life Sciences Inc. (Cat #5120‐0075, Milford, MA, USA). Mice were then anesthetized with 1% isoflurane, CSF was collected from the cisterna magna as described previously (Liu & Duff, [2008]), and mice were then sacrificed. […] The sensitivity of this ELISA is equivalent to that of other sELISA systems used to quantify p3‐Alcβ37 and p3‐Alcβ40 (Hata et al, [2019]). Antiserum diluted 1:10,000 was used as a capture antibody in the sELISA. The antibody was affinity‐purified with antigen‐coupled resin, and biotin‐labeled IgG was then used as the detection antibody."}}, "note": "Ends that are not written are not given here.", "data": [{"compound": "CC12CC3CC(C)(C1)CC(N)(C3)C2", "note": "[memantine]", "values": [{"measurement": "mitochondrial activity", "setting": "[1]", "value": "does not increase mitochondrial activity"}]}, {"compound": "VLSSQQFLHRGHQPPPEMAGHSLASSHRNSMIPSAAT [p3‐Alcβ37]", "values": [{"measurement": "transport into the brain", "setting": "[2]", "value": "transported into the brain"}]}, {"compound": "NC(CCCP(=O)(O)O)C(=O)O", "note": "(stereo not drawn) [D‐AP5]", "values": [{"measurement": "Aβo-induced Ca2+ entry with NMDA antagonist (Fig 4A)", "setting": "[3]; D-AP5 50 μM, AUC 5–29 min, n = 4", "value": "suppressed"}, {"measurement": "suppression of Aβo-triggered Ca2+ influx, single agents (Fig 4D)", "setting": "[3]; p3-Alcβ9-19 50 μM or D-AP5 50 μM, AUC 5–28 min, n = 12", "value": "suppressed significantly"}, {"measurement": "Ca2+ influx after Ca2+ administration with D-AP5 (Fig 4C)", "setting": "[4]", "value": "slightly, but not significantly, reduced"}]}, {"compound": "HRGHQPPPEMA [p3‐Alcβ9‐19]", "values": [{"measurement": "transfer into the brain, p3-Alcβ9-19 levels in CSF by sELISA", "setting": "[5]", "value": "successful transfer"}]}]}
